Key:
Rattus norvegicus [1] = species on record: Rattus norvegicus; assay: Percent inhibition of Concanavalin A stimulated cell proliferation of rat spleen lymphocytes at 0.01 uM; type: functional
Oryctolagus cuniculus [2] = species on record: Oryctolagus cuniculus; assay: Tested for percent inhibition of Neutral metalloprotease in rabbit chondrocytes at 0.1 uM concentration; type: cell-based
Oryctolagus cuniculus [3] = species on record: Oryctolagus cuniculus; assay: Tested for percent inhibition of Neutral metalloprotease in rabbit chondrocytes at 10 uM concentration; type: cell-based
Rattus norvegicus [4] = species on record: Rattus norvegicus; assay: Percent inhibition of Concanavalin A stimulated cell proliferation of rat spleen lymphocytes at 0.001 uM; type: functional
Rattus norvegicus [5] = species on record: Rattus norvegicus; assay: Percent inhibition of Concanavalin A stimulated cell proliferation of rat spleen lymphocytes at 0.1 uM; type: functional
Rattus norvegicus [6] = species on record: Rattus norvegicus; assay: Percent inhibition of Concanavalin A stimulated cell proliferation of rat spleen lymphocytes at 10 uM; type: functional
Oryctolagus cuniculus [7] = species on record: Oryctolagus cuniculus; assay: Tested for percent inhibition of Neutral metalloprotease in rabbit chondrocytes at 1 uM concentration; type: cell-based
Rattus norvegicus [8] = species on record: Rattus norvegicus; assay: Percent inhibition of Concanavalin A stimulated cell proliferation of rat spleen lymphocytes at 1 uM; type: functional
Oryctolagus cuniculus [9] = species on record: Oryctolagus cuniculus; assay: Tested for percent inhibition of Neutral metalloprotease in rabbit chondrocytes at 10 uM concentration; toxic; type: cell-based
[10] = Half life was evaluated; type: ADME
[11] = Time at which the maximum concentration is achieved; type: ADME
[12] = Maximum concentration in plasma at Tmax; type: ADME, organism-based
Rattus norvegicus [13] = species on record: Rattus norvegicus; assay: Percent reduction in arthritis score was measured in CP-20961 injected rats on day 16; type: functional; parameters: scale not given: the % may be the effect or the level left
Rattus norvegicus [14] = species on record: Rattus norvegicus; assay: Percent reduction in arthritis score was measured in CP-20961 injected rats; NR is no reduction; type: functional, organism-based

Row | Compound | inhibition at 0.01 µM (Rattus norvegicus [1]) | inhibition (Oryctolagus cuniculus [2]) | inhibition (Oryctolagus cuniculus [3]) | inhibition at 0.001 µM (Rattus norvegicus [4]) | inhibition at 0.1 µM (Rattus norvegicus [5]) | inhibition at 10 µM (Rattus norvegicus [6]) | inhibition (Oryctolagus cuniculus [7]) | inhibition at 1 µM (Rattus norvegicus [8]) | inhibition (Oryctolagus cuniculus [9]) | half-life [10] | Tmax [11] | Cmax [12] | Activity (Rattus norvegicus [13]) | Activity (Rattus norvegicus [14])
1 | N#Cc1c(N)nc2c(c1-c1cccc([N+](=O)[O-])c1)CCc1ccccc1-2 | 15% | 8% | 42% | 13% | 23% | 46% | 36% | 23% | – | – | – | – | – | –
2 | N#Cc1c(O)nc2c(c1-c1cccc([N+](=O)[O-])c1)CCc1ccccc1-2 | – | 36% | 36% | – | – | – | 3% | – | – | – | – | – | – | –
3 | N#CC1=C(N)OC2=C(CCc3ccccc32)C1c1cccc([N+](=O)[O-])c1 (stereo not drawn) | 58% | 39% | 104% | 29% | 87% | 99% | 76% | 95% | – | – | – | – | – | –
4 | N#CC1=C(N)Oc2c(ccc3ccccc23)C1c1ccc(F)c(Cl)c1 (stereo not drawn) | 38% | 37% | – | – | 83% | 98% | 111% | 86% | 81% | – | – | – | – | –
5 | N#CC1=C(N)Oc2c(ccc3ccccc23)C1c1cccnc1 (stereo not drawn) | 11% | 75% | 100% | 0% | 89% | – | 83% | 95% | – | – | – | – | – | –
6 | N#CC1=C(N)Oc2c(ccc3ccccc23)C1c1cccc([N+](=O)[O-])c1 (stereo not drawn) | 73% | 74% | 102% | 33% | 89% | 99% | 76% | 95% | – | ~60 min | – | – | – | –
7 | N#CC1=C(n2cccc2)Oc2c(ccc3ccccc23)C1c1cccc([N+](=O)[O-])c1 (stereo not drawn) | – | 1% | 4% | – | -7% | 87% | -5% | 82% | – | – | – | – | – | –
8 | N#CC1C(=O)NC2=C(CCc3ccccc32)C1c1cccc([N+](=O)[O-])c1 (stereo not drawn) | 8% | -7% | 20% | 9% | 6% | 22% | 36% | 15% | – | – | – | – | – | –
9 | N#CC1=C(N2C(=O)CCC2=O)Oc2c(ccc3ccccc23)C1c1cccc([N+](=O)[O-])c1 (stereo not drawn) | 1% | 17% | 86% | 9% | -4% | 97% | 69% | 87% | – | – | 6 h | 5 ng/mL | 48% | –
10 | N#CC1=C(N2C(=O)CCC2=O)Oc2c(ccc3ccccc23)C1c1cccnc1 (stereo not drawn) | -6% | – | 25% | 7% | -5% | 87% | 17% | 85% | – | – | 0.5 h | 55 ng/mL | 41% | –
11 | O=C1CC(c2cccc([N+](=O)[O-])c2)c2ccc3ccccc3c2O1 (stereo not drawn) | 6% | – | – | 19% | 9% | 15% | – | 2% | – | – | – | – | – | –
12 | N#CC1=C(N2C(=O)CCC2=O)Oc2c(ccc3ccccc23)C1c1ccc(F)c(Cl)c1 (stereo not drawn) | -16% | 26% | 111% | 18% | 10% | 98% | 53% | 92% | – | – | 4 h | 178 ng/mL | – | No reduction

— ChEMBL document CHEMBL1128083, “The anti-rheumatic potential of a series of 2,4-di-substituted-4H-naphtho[1,2-b]pyran-3-carbonitriles” (Bioorg Med Chem Lett, 1995)
